Test results published in ChEMBL document CHEMBL4000239, “A novel piperazine linked β-amino alcohols bearing a benzosuberone scaffolds as anti-proliferative agents” (2017).

Experiments:
Type in all cases: functional
A549 = test: Cytotoxicity against human A549 cells assessed as growth inhibition after 48 hrs by SRB assay; conditions: A549, 48 h
HeLa = test: Cytotoxicity against human HeLa cells assessed as growth inhibition after 48 hrs by SRB assay
MDA-MB-231 = test: Cytotoxicity against human MDA-MB-231 cells assessed as growth inhibition after 48 hrs by SRB assay; conditions: MDA-MB-231, 48 h
[1] = Cytotoxicity against human MiaPaCa cells assessed as growth inhibition after 48 hrs by SRB assay; conditions: MIA PaCa-2, 48 h

SMILES | GI50 (A549) [µM] | GI50 (HeLa) [µM] | GI50 (MDA-MB-231) [µM] | GI50 [1] [µM]
Cc1cc2c(cc1C)C(Cl)=C(COCC(O)CN1CCCCC1)CCC2 (stereo not drawn) | 1.5 | 1.7 | 2.1 | 2.6
Cc1cc2c(cc1C)C(Cl)=C(COCC(O)CN1CCN(c3ccccc3F)CC1)CCC2 (stereo not drawn) | 6.3 | 7.8 | 9 | 9.6
Cc1cc2c(cc1C)C(Cl)=C(COCC(O)CN1CCSCC1)CCC2 (stereo not drawn) | 0.9 | 1 | 2.9 | 1.5
Cc1cc2c(cc1C)C(Cl)=C(COCC(O)CN1CCN(C)CC1)CCC2 (stereo not drawn) | 18.2 | 16.3 | 20.8 | 24.4
CCOC(=O)N1CCN(CC(O)COCC2=C(Cl)c3cc(C)c(C)cc3CCC2)CC1 (stereo not drawn) | 4 | 7.2 | 7.3 | 7.9
Cc1cc2c(cc1C)C(Cl)=C(COCC(O)CN1CCN(c3ccc(C(F)(F)F)cc3)CC1)CCC2 (stereo not drawn) | 3 | 3.8 | 2.5 | 2
Cc1cc2c(cc1C)C(Cl)=C(COCC(O)CN1CCC(Cc3ccccc3)CC1)CCC2 (stereo not drawn) | 1.8 | 1.4 | 2.9 | 1.2
Cc1cc2c(cc1C)C(Cl)=C(COCC(O)CN1CCN(c3ccccc3)CC1)CCC2 (stereo not drawn) | 5.8 | 6.9 | 7.8 | 8.8
Cc1cc2c(cc1C)C(Cl)=C(COCC(O)CN1CCOCC1)CCC2 (stereo not drawn) | 5.2 | 7.4 | 7.9 | 5.6
COc1ccccc1N1CCN(CC(O)COCC2=C(Cl)c3cc(C)c(C)cc3CCC2)CC1 (stereo not drawn) | 2.1 | 2.4 | 3 | 2.8
Cc1cc2c(cc1C)C(Cl)=C(COCC(O)CN1CCN(c3ccc([N+](=O)[O-])cc3)CC1)CCC2 (stereo not drawn) | 0.023 | 0.097 | 0.01 | 0.056
COC(=O)Nc1nc2cc(C(=O)c3cccs3)ccc2[nH]1 [NOCODAZOLE] | 0.09 | 0.086 | 0.065 | 0.091
